In patent US9540613B2, “Methods for producing insulin-secreting beta cells from human pluripotent stem cells” (Wisconsin Alumni Research Foundation, priority 2013, dated 2017):

Legend:
[1] = test system: PDX1 and insulin protein expression in H1 cells; test: Flow cytometry of PDX1 and insulin protein expression at end of Stage 4; format: cell-based, human; details: for PDX1 and insulin double positive cells: loss of both nicotinamide and Exendin-4 from Stage 4 medium
Description: To quantify insulin and PDX1 protein expression we optimized a flow cytometry assay. […] The INS-1 cell line is an immortalized pancreatic beta cell line that expresses both PDX1 and insulin. On the bottom left, is our negative control, unstained H1 cells differentiated for 18 days. On the right, is H1 cells differentiated by the current protocol through day 18 stained with Insulin-PB and PDX1-AF488. […] Only 8-11% of the cells are PDX1 and insulin double positive.
To examine protein expression we collected cells at the end of Stage 4 and examined them by flow cytometry.
Thus, the effect of Noggin is context dependent and synergistic with nicotinamide and Exendin-4.

[2] = test system: PDX1, NKX6.1, Neurogenin 3 and insulin gene expression; test: QPCR gene expression of endoderm and pancreatic markers in differentiated cells; format: cell-based, human; details: presence or absence of nicotinamide at Stage 3
Description: QPCR was performed at the end of Stage 4 ([…] Day 18) to examine gene expression of PDX1, a marker of pancreatic epithelium and progenitor cells, insulin, a marker of beta cells, and Sox9 which is expressed in the developing pancreatic epithelium. The gene expression is compared to undifferentiated cells collected at Day 0 and β-Actin is the internal control. […] Human Fetal Pancreas (HFP), gestation 14-20 weeks, is represented as a positive control.
In FIG. 19, the gene expression is compared to undifferentiated cells collected at Day 0 and B-Actin is the internal control. On the y axis is delta CT (instead of fold change), thus, the lower the value the greater the gene expression.
First, alterations at Stage 3 and 4 altered gene expression minimally. […] On the y axis is delta CT (instead of fold change), thus, the lower the value the greater the gene expression. […] In contrast the addition of Noggin at Stage 4, decreased PDX1 and NKX6.1 gene expression and increased Neurogenin 3 expression. There was no difference in insulin gene expression following the addition of Noggin to Stage 4.

[3] = addition of nicotinamide at Stage 3, cells at end of Stage 4

NC(=O)c1cccnc1 [nicotinamide]
PDX1 protein expression [1, 3]: decreased
double positive PDX and insulin positive cells [1, 3]: little difference
insulin protein expression [1, 3]: increased
PDX1 and insulin double positive cells [1]: increases PDX1 and insulin double positive cells
protein expression ([1]; loss of nicotinamide from Stage 4 medium): little to no loss
gene expression (delta CT) [2]: did not alter gene expression

Exendin-4: a long-acting GLP-1 agonist
protein expression of either PDX1 or insulin ([1]; loss of Exendin-4 from Stage 4 medium): little to no difference
PDX1 and insulin double positive cells [1]: increases PDX1 and insulin double positive cells

FGF2: Basic fibroblast growth factor
insulin protein expression ([1]; FGF2 instead of FGF7 at Stage 2): less insulin protein expression
